Patent publication US9580444B2, “Polycyclic pyrazolinone derivative and herbicide comprising same as effective component thereof” (priority 2013, dated 2017)

What was measured:
Assay type in all cases: in vivo
Settings in all cases: 500 g a.i/ha, foliage treatment after emergence, about 14 days after treatment, score 0-5
[1] = system: Amaranthus viridis (green amaranthus); assay: Test Example-4: herbicidal effect by a foliage treatment after weeds are generated under upland field conditions
From the text: (§1) Using the formulation prepared according to the methods described above, the herbicidal effect of the bicyclic pyrazolinone derivative of the invention according to the methods shown in Test Examples below was examined. The herbicidal effect with respect to the test weeds or the phytotoxicity with respect to the test crops was examined according to the following criteria, and evaluated in six stage scores of 0 to 5. A vat having an area of 65 cm^2 and a depth of 2 cm was filled with upland soil, then, seeds of Amaranthus viridis (green amaranthus), Abutilon theophrasti (velvetleaf), Chenopodium album (common lambsquarters), […]. While watering was suitably performed on there, the seeds were grown for 14 days. A wettable powder or an emulsifiable concentrate of the compound of the present invention prepared according to Formulation Example was diluted, and a spray treatment was uniformly performed on the foliage portion of the plant so as to be a predetermined dosage in the amount of water of 4000 L per hectare. The herbicidal effect with respect to the test weeds and the phytotoxicity with respect to corn about 14 days after the treatment were evaluated according to the evaluation criteria in six stages of 0 to 5 described above.

[2] = system: Chenopodium album (common lambsquarters); assay: as above
From the text: as §1

[3] = system: Abutilon theophrasti (velvetleaf); assay: as above
From the text: as §1

corn = assay: Test Example-4: phytotoxicity by a foliage treatment after weeds are generated under upland field conditions
From the text: as §1

Compound	Herbicidal effect Amaranthus viridis [1]	Herbicidal effect Chenopodium album [2]	Herbicidal effect Abutilon theophrast [3]	Phytotoxicity Corn (corn)
COc1ccccc1Oc1cc(-c2c(Cl)n3n(c2=O)CCCC3)c(F)cc1Cl [Example 3-2]	5 (Herbicidal effect/phytotoxicity was 90% or greater)	5 (Herbicidal effect/phytotoxicity was 90% or greater)	5 (Herbicidal effect/phytotoxicity was 90% or greater)	2 (Herbicidal effect/phytotoxicity was 30% to 50%)
CC(C)Oc1ccccc1Oc1cc(-c2c(Cl)n3n(c2=O)CCCC3)c(F)cc1Cl [Example 3-8]	5 (Herbicidal effect/phytotoxicity was 90% or greater)	5 (Herbicidal effect/phytotoxicity was 90% or greater)	5 (Herbicidal effect/phytotoxicity was 90% or greater)	0 (Herbicidal effect/phytotoxicity was 0% to 10%)
CC(C)Oc1cccc(Oc2cc(-c3c(Cl)n4n(c3=O)CCCC4)c(F)cc2Cl)c1 [Example 3-11]	5 (Herbicidal effect/phytotoxicity was 90% or greater)	5 (Herbicidal effect/phytotoxicity was 90% or greater)	5 (Herbicidal effect/phytotoxicity was 90% or greater)	0 (Herbicidal effect/phytotoxicity was 0% to 10%)
CCOC(=O)COc1ccccc1Oc1cc(-c2c(Cl)n3n(c2=O)CCCC3)c(F)cc1Cl [Example 3-17]	5 (Herbicidal effect/phytotoxicity was 90% or greater)	5 (Herbicidal effect/phytotoxicity was 90% or greater)	5 (Herbicidal effect/phytotoxicity was 90% or greater)	0 (Herbicidal effect/phytotoxicity was 0% to 10%)
C=CCOc1ccccc1Oc1cc(-c2c(Cl)n3n(c2=O)CCCC3)c(F)cc1Cl [Example 3-21]	5 (Herbicidal effect/phytotoxicity was 90% or greater)	5 (Herbicidal effect/phytotoxicity was 90% or greater)	5 (Herbicidal effect/phytotoxicity was 90% or greater)	1 (Herbicidal effect/phytotoxicity was 10% to 30%)
C=C(C)COc1ccccc1Oc1cc(-c2c(Cl)n3n(c2=O)CCCC3)c(F)cc1Cl [Example 3-22]	5 (Herbicidal effect/phytotoxicity was 90% or greater)	5 (Herbicidal effect/phytotoxicity was 90% or greater)	5 (Herbicidal effect/phytotoxicity was 90% or greater)	0 (Herbicidal effect/phytotoxicity was 0% to 10%)
COC(=O)C=C(COc1ccccc1Oc1cc(-c2c(Cl)n3n(c2=O)CCCC3)c(F)cc1Cl)OC [Example 3-23]	5 (Herbicidal effect/phytotoxicity was 90% or greater)	5 (Herbicidal effect/phytotoxicity was 90% or greater)	5 (Herbicidal effect/phytotoxicity was 90% or greater)	0 (Herbicidal effect/phytotoxicity was 0% to 10%)
C=CCOC(=O)C=C(COc1ccccc1Oc1cc(-c2c(Cl)n3n(c2=O)CCCC3)c(F)cc1Cl)OC [Example 3-24]	5 (Herbicidal effect/phytotoxicity was 90% or greater)	5 (Herbicidal effect/phytotoxicity was 90% or greater)	5 (Herbicidal effect/phytotoxicity was 90% or greater)	0 (Herbicidal effect/phytotoxicity was 0% to 10%)
C=CCOc1cccc(Oc2cc(-c3c(Cl)n4n(c3=O)CCCC4)c(F)cc2Cl)c1 [Example 3-28]	5 (Herbicidal effect/phytotoxicity was 90% or greater)	5 (Herbicidal effect/phytotoxicity was 90% or greater)	5 (Herbicidal effect/phytotoxicity was 90% or greater)	0 (Herbicidal effect/phytotoxicity was 0% to 10%)
CC#CCOc1ccccc1Oc1cc(-c2c(Cl)n3n(c2=O)CCCC3)c(F)cc1Cl [Example 3-30]	5 (Herbicidal effect/phytotoxicity was 90% or greater)	5 (Herbicidal effect/phytotoxicity was 90% or greater)	5 (Herbicidal effect/phytotoxicity was 90% or greater)	1 (Herbicidal effect/phytotoxicity was 10% to 30%)
C#CCOc1cc(F)ccc1Oc1cc(-c2c(Cl)n3n(c2=O)CCCC3)c(F)cc1Cl [Example 3-35]	5 (Herbicidal effect/phytotoxicity was 90% or greater)	5 (Herbicidal effect/phytotoxicity was 90% or greater)	5 (Herbicidal effect/phytotoxicity was 90% or greater)	1 (Herbicidal effect/phytotoxicity was 10% to 30%)
COc1cc(C)ccc1Oc1cc(-c2c(Cl)n3n(c2=O)CCCC3)c(F)cc1Cl [Example 3-41]	5 (Herbicidal effect/phytotoxicity was 90% or greater)	5 (Herbicidal effect/phytotoxicity was 90% or greater)	5 (Herbicidal effect/phytotoxicity was 90% or greater)	1 (Herbicidal effect/phytotoxicity was 10% to 30%)
C=CCOc1cc(C)ccc1Oc1cc(-c2c(Cl)n3n(c2=O)CCCC3)c(F)cc1Cl [Example 3-42]	5 (Herbicidal effect/phytotoxicity was 90% or greater)	5 (Herbicidal effect/phytotoxicity was 90% or greater)	5 (Herbicidal effect/phytotoxicity was 90% or greater)	0 (Herbicidal effect/phytotoxicity was 0% to 10%)
C#CCOc1cc(C)ccc1Oc1cc(-c2c(Cl)n3n(c2=O)CCCC3)c(F)cc1Cl [Example 3-43]	5 (Herbicidal effect/phytotoxicity was 90% or greater)	5 (Herbicidal effect/phytotoxicity was 90% or greater)	5 (Herbicidal effect/phytotoxicity was 90% or greater)	0 (Herbicidal effect/phytotoxicity was 0% to 10%)
CC1(COc2cc(-c3c(Cl)n4n(c3=O)CCCC4)c(F)cc2Cl)CC(c2ccccc2)=NO1 (stereo not shown) [Example 4-1]	5 (Herbicidal effect/phytotoxicity was 90% or greater)	5 (Herbicidal effect/phytotoxicity was 90% or greater)	5 (Herbicidal effect/phytotoxicity was 90% or greater)	0 (Herbicidal effect/phytotoxicity was 0% to 10%)
CC1(COc2cc(-c3c(Cl)n4n(c3=O)CCCC4)c(F)cc2Cl)CC(c2ccccc2Cl)=NO1 (stereo not shown) [Example 4-5]	5 (Herbicidal effect/phytotoxicity was 90% or greater)	5 (Herbicidal effect/phytotoxicity was 90% or greater)	5 (Herbicidal effect/phytotoxicity was 90% or greater)	1 (Herbicidal effect/phytotoxicity was 10% to 30%)
CC1(COc2cc(-c3c(Cl)n4n(c3=O)CCCC4)c(F)cc2Cl)CC(c2ccc(Cl)cc2)=NO1 (stereo not shown) [Example 4-8]	5 (Herbicidal effect/phytotoxicity was 90% or greater)	5 (Herbicidal effect/phytotoxicity was 90% or greater)	5 (Herbicidal effect/phytotoxicity was 90% or greater)	2 (Herbicidal effect/phytotoxicity was 30% to 50%)
CC1(COc2cc(-c3c(Cl)n4n(c3=O)CCCC4)c(F)cc2Cl)CC(c2ccc(F)cc2Cl)=NO1 (stereo not shown) [Example 4-11]	5 (Herbicidal effect/phytotoxicity was 90% or greater)	5 (Herbicidal effect/phytotoxicity was 90% or greater)	5 (Herbicidal effect/phytotoxicity was 90% or greater)	2 (Herbicidal effect/phytotoxicity was 30% to 50%)
CC1(COc2cc(-c3c(Cl)n4n(c3=O)CCCC4)c(F)cc2Cl)CC(c2ccc(Cl)cc2Cl)=NO1 (stereo not shown) [Example 4-12]	5 (Herbicidal effect/phytotoxicity was 90% or greater)	5 (Herbicidal effect/phytotoxicity was 90% or greater)	5 (Herbicidal effect/phytotoxicity was 90% or greater)	1 (Herbicidal effect/phytotoxicity was 10% to 30%)
Nc1cc(-c2c(Cl)n3n(c2=O)CCCC3)c(F)cc1Cl [Example 5-11]	5 (Herbicidal effect/phytotoxicity was 90% or greater)	5 (Herbicidal effect/phytotoxicity was 90% or greater)	5 (Herbicidal effect/phytotoxicity was 90% or greater)	1 (Herbicidal effect/phytotoxicity was 10% to 30%)
CCS(=O)(=O)Nc1cc(-c2c(Cl)n3n(c2=O)CCCC3)c(F)cc1Cl [Example 5-51]	5 (Herbicidal effect/phytotoxicity was 90% or greater)	5 (Herbicidal effect/phytotoxicity was 90% or greater)	5 (Herbicidal effect/phytotoxicity was 90% or greater)	0 (Herbicidal effect/phytotoxicity was 0% to 10%)
O=c1c(-c2cc(NS(=O)(=O)c3ccccc3Cl)c(Cl)cc2F)c(Cl)n2n1CCCC2 [Example 5-63]	5 (Herbicidal effect/phytotoxicity was 90% or greater)	5 (Herbicidal effect/phytotoxicity was 90% or greater)	5 (Herbicidal effect/phytotoxicity was 90% or greater)	0 (Herbicidal effect/phytotoxicity was 0% to 10%)
